From PMC13239830, “Antimicrobial Peptides Induce Cell Death in Marginal Zone Lymphoma Models Resistant to Targeted Therapies” (EJHaem, 2026)
Entries after “also recorded” stand apart in the source; their conditions may differ. Peptide text beside a SMILES is read from it.

Key:
[1] = system: MZL cell lines (VL51, Karpas1718) and resistant derivatives; assay: In vitro cytotoxic activity (MTT, 72 h), summary over the MZL cell line panel; format: cell-based; details: for activity in resistant models: derivatives resistant to BTK, PI3Kδ or PI3Kα/δ inhibitors
Experimental: For in vitro testing, we used two human MZL cell lines, VL51 and Karpas1718, along with derivative clones rendered resistant by prolonged exposure to the BTK inhibitor ibrutinib, the PI3Kδ inhibitor idelalisib, or the PI3Kα/δ inhibitor copanlisib (Table S1; methods described in the Supporting Information). […] The calculated IC50 values ranged from 5 to 10 µM (Table S2). […] These findings were validated by treating lymphoma cells and peripheral blood mononuclear cells (PBMCs) in parallel. […] While acquired resistance to BTK or PI3K inhibitors often involves secondary mutations in the drug‐binding site, activation of alternative kinases, or evasion of apoptosis through upregulation of anti‐apoptotic proteins, these adaptations are unlikely to protect tumor cells from AMP‐mediated membrane disruption. […]
(§1) The established human cell lines VL51 1 and Karpas1718 2, derived from bona fide marginal zone lymphomas (MZL), and their derivatives with secondary resistance obtained by long exposure to the BTK inhibitor ibrutinib, the PI3Kδ inhibitor idelalisib or the PI3Kα/δ inhibitor copanlisib (three from VL51 3-5, and one from Karpas1718 6). Cell lines were cultured in RPMI supplemented with fetal bovine serum (FBS) (10%) and penicillin-streptomycin-neomycin (≈5,000 units penicillin, 5 mg streptomycin, and 10 mg neomycin/mL; Sigma-Aldrich, Darmstadt, Germany). Cell line identities were confirmed by periodic short tandem repeat (STR) DNA fingerprinting using the Promega GenePrint 10 System kit (B9510).
(§2) Cells were regularly tested for mycoplasma negativity using the MycoAlert Mycoplasma Detection Kit (Lonza, Visp, Switzerland).
(§3) […] Purity (>95%) was confirmed by reverse-phase high-performance liquid chromatography (RP-HPLC) while molecular masses were verified by mass spectrometry. Peptides were dissolved in nuclease-free water, and 2 mM stock solutions were prepared 7.
(§4) Antarctic peptides were synthesized by Caslo Aps (Caslo Aps Kongens, Lyngby, Denmark) with 98% purity. Purity was confirmed by reverse-phase high-performance liquid chromatography (RP-HPLC), and molecular masses were verified by mass spectrometry. As previously reported, the peptide stock concentration in nuclease-free water (1 mM) was determined spectrophotometrically.
(§5) In vitro cytotoxic activity
(§6) Cells were manually seeded into 96-well plates (VL51, 10’000 cells per well; SSK41, 20’000 cells per well; Karpas1718, 30’000 cells per well). Treatments were applied manually, and cell viability was assessed after 72 hours using 3-(4,5-dimethylthiazol-2-yl)-2,5-diphenyltetrazolium bromide (MTT).
(§7) After a 4-hour incubation, the reaction was terminated by adding sodium dodecyl sulfate (SDS) lysis buffer. Plates were analyzed with Cytation3, and IC50s were calculated using the 4-parameter logistic model (R environment or GraphPad Prism, Version 10.6.1). Antarctic peptides were tested at 40μM, with 1:2 dilutions down to 625 nM. Temporins were tested at 100μM, with 1:5 dilutions down to 32 nM. […]

Karpas1718 cells = format: cell-based, human; details: 72 h
Experimental: as §1, §2, §3, §4, §5, §6, §7

[2] = system: VL51-Copa (copanlisib-resistant VL51) cells; format: cell-based, human; details: 72 h
Experimental: as §1, §2, §3, §4, §5, §6, §7

[3] = system: VL51-Ibru (ibrutinib-resistant VL51) cells; format: cell-based, human; details: 72 h
Experimental: as §1, §2, §3, §4, §5, §6, §7

VL51 cells = format: cell-based, human; details: 72 h
Experimental: as §1, §2, §3, §4, §5, §6, §7

[4] = system: VL51-Idel (idelalisib-resistant VL51) cells; format: cell-based, human; details: 72 h
Experimental: as §1, §2, §3, §4, §5, §6, §7

[5] = system: Karpas1718-Idel (idelalisib-resistant Karpas1718) cells; format: cell-based, human; details: 72 h
Experimental: as §1, §2, §3, §4, §5, §6, §7

PBMCs = assay: Cell death and membrane integrity by Annexin V/PI staining; format: cell-based; details: 10 µM, 1 and 2 h, PBMCs treated in parallel, flow cytometry
Experimental: as §1
Cells were regularly tested for mycoplasma negativity using the MycoAlert Mycoplasma Detection Kit (Lonza, Visp, Switzerland). […]
Antarctic peptides were synthesized by Caslo Aps (Caslo Aps Kongens, Lyngby, Denmark) with 98% purity. […] As previously reported, the peptide stock concentration in nuclease-free water (1 mM) was determined spectrophotometrically. […]
Subsequently, cells were stained with Annexin V and propidium iodide (PI) (Annexin V FITC Apoptosis Detection Kit, BMS500FI-300, Life Technologies) following the manufacturer ’s instructions and analyzed through flow cytometry and immunofluorescence (Leica Thunder microscope). […]

Karpas1718-Idel cells = assay: as above; format: cell-based, human; details: 10 µM, 1 and 2 h, flow cytometry
Experimental: as §1, §2, §3
as §4, with “spectrophotometrically. […]” for “spectrophotometrically.”
Subsequently, cells were stained with Annexin V and propidium iodide (PI) (Annexin V FITC Apoptosis Detection Kit, BMS500FI-300, Life Technologies) following the manufacturer ’s instructions and analyzed through flow cytometry and immunofluorescence (Leica Thunder microscope).
PBMCs. Flow cytometric (A) and immunofluorescence (B) analyses of Annexin V/PI staining in Karpas1718-Idel cells and PBMCs after 1- and 2-hour treatments with W-trematocine or Temporin L at 10 µM. (B) Representative images (100x magnification) show brightfield, Annexin V (green), and PI […]

[6] = system: primary human fibroblasts; details: up to 25 µM, 24 h, ref [9]; cited from earlier work
nonmalignant cells = details: prior studies; ref prior studies; cited from earlier work
Description: ABSTRACT Introduction Marginal zone lymphoma (MZL) is an indolent yet incurable B‐cell malignancy in which targeted agents such as BTK and PI3K inhibitors frequently fail due to resistance or toxicity. […] Methods Peptides were synthesized and tested for their anti‐proliferative activity in MZL cell lines. Results We evaluated the antitumor activity of seven natural AMPs, including Antarctic fish–derived trem ...

rabbit erythrocytes = details: ref [9]; cited from earlier work

Row | Compound | IC50 (Karpas1718 cells) [µM] | IC50 [2] [µM] | IC50 [3] [µM] | IC50 (VL51 cells) [µM] | IC50 [4] [µM] | IC50 [5] [µM] | anti-proliferative activity (in words) ([1]; MZL cell lines VL51, Karpas1718 and resistant derivatives) | cytotoxic effect ([1]; concentrations up to 50 µM, MZL cell lines) | activity in resistant models [1] | sensitivity of PBMCs (Annexin V/PI staining) (PBMCs; listed as temporin L) | anti-lymphoma activity (Annexin V/PI staining) (Karpas1718-Idel cells) | anti-lymphoma activity (Annexin V/PI staining) (Karpas1718-Idel cells; listed as temporin L) | IC50 ([1]; 72 h) [µM] | cytotoxicity [6] | toxicity toward nonmalignant cells (nonmalignant cells) | hemolysis (rabbit erythrocytes) | sensitivity of PBMCs (Annexin V/PI staining) (PBMCs)
1 | CSCC[C@H](NC(=O)CNC(=O)[C@H](Cc1c[nH]cn1)NC(=O)[C@@H](NC(=O)[C@H](CCCNC(=N)N)NC(=O)[C@H](CCC(=O)O)NC(=O)[C@H](C)NC(=O)[C@H](C)NC(=O)[C@@H](NC(=O)[C@H](CC(C)C)NC(=O)[C@H](C)NC(=O)[C@H](Cc1c[nH]cn1)NC(=O)CNC(=O)[C@@H](NC(=O)[C@H](Cc1c[nH]cn1)NC(=O)[C@H](CCCCN)NC(=O)[C@H](Cc1c[nH]c2ccccc12)NC(=O)[C@H](Cc1ccccc1)NC(=O)[C@H](CCC(=O)O)NC(=O)[C@@H](N)Cc1ccccc1)C(C)C)[C@@H](C)O)C(C)C)C(=O)N[C@@H](CC(C)C)C(=O)N[C@H](C(=O)NCC(=O)O)[C@@H](C)O [Chionodracine] (H-FEFWKHVGHALTAAERVHGMLTG-OH; N-terminus and C-terminus assumed) | > 40 | > 40 | > 40 | > 40 | > 40 | > 40 | inactive | no measurable cytotoxic effect | – | – | – | – | – | – | – | – | –
2 | CC[C@H](C)[C@H](NC(=O)CNC(=O)[C@H](CO)NC(=O)[C@H](CC(C)C)NC(=O)[C@@H](NC(=O)[C@H](CCCNC(=N)N)NC(=O)CNC(=O)[C@@H](NC(=O)[C@H](CC(C)C)NC(=O)[C@@H]1CCCN1C(=O)[C@H](CC(C)C)NC(=O)[C@@H](N)Cc1ccccc1)[C@@H](C)CC)C(C)C)C(=O)N[C@@H](CC(C)C)C(N)=O [Temporin A] (H-FLPLIGRVLSGIL-NH2; N-terminus and C-terminus assumed) | 47.4 | 48.8 | 48.5 | 32 | 27.5 | 49 | – | – | – | – | – | – | – | – | – | – | –
3 | CC[C@H](C)[C@H](NC(=O)[C@@H]1CCCN1C(=O)[C@H](CC(C)C)NC(=O)[C@@H](N)CC(C)C)C(=O)N[C@H](C(=O)NCC(=O)N[C@@H](CC(N)=O)C(=O)N[C@@H](CC(C)C)C(=O)N[C@@H](CC(C)C)C(=O)N[C@@H](CCCCN)C(=O)N[C@@H](CO)C(=O)N[C@@H](CC(C)C)C(=O)N[C@@H](CC(C)C)C(N)=O)C(C)C [Temporin B] (H-LLPIVGNLLKSLL-NH2; N-terminus and C-terminus assumed) | 44.1 | 47.7 | 45.4 | 38.2 | 31.6 | 71.4 | – | – | – | – | – | – | – | – | – | – | –
4 | CC[C@H](C)[C@H](NC(=O)CNC(=O)[C@H](CCCNC(=N)N)NC(=O)[C@H](Cc1ccc(O)cc1)NC(=O)[C@H](CC(C)C)NC(=O)[C@H](CCC(N)=O)NC(=O)[C@H](CO)NC(=O)[C@H](Cc1ccccc1)NC(=O)[C@@H](N)Cc1ccccc1)C(=O)N[C@H](C(=O)N[C@@H](CO)C(=O)N[C@H](C(=O)NCC(=O)N[C@@H](CCCCN)C(=O)N[C@@H](Cc1c[nH]cn1)C(=O)N[C@H](C(=O)N[C@@H](Cc1c[nH]cn1)C(=O)NCC(=O)N[C@@H](CC(C)C)C(=O)N[C@@H](CC(C)C)C(=O)N[C@@H](CO)C(=O)NCC(=O)O)[C@@H](C)CC)C(C)C)C(C)C [Trematocine-1] (H-FFSQLYRGIVSVGKHIHGLLSG-OH; N-terminus and C-terminus assumed) | > 40 | > 40 | > 40 | > 40 | > 40 | > 40 | – | – | – | – | – | – | 25 to 50 | – | – | – | –

Stronger by IC50 (Karpas1718 cells), values ahead:

Row | IC50 (Karpas1718 cells) [µM] | IC50 [2] [µM] | IC50 [3] [µM] | IC50 (VL51 cells) [µM] | IC50 [4] [µM] | IC50 [5] [µM] | Compound | anti-proliferative activity (in words) ([1]; MZL cell lines VL51, Karpas1718 and resistant derivatives) | cytotoxic effect ([1]; concentrations up to 50 µM, MZL cell lines) | activity in resistant models [1] | sensitivity of PBMCs (Annexin V/PI staining) (PBMCs; listed as temporin L) | anti-lymphoma activity (Annexin V/PI staining) (Karpas1718-Idel cells) | anti-lymphoma activity (Annexin V/PI staining) (Karpas1718-Idel cells; listed as temporin L) | IC50 ([1]; 72 h) [µM] | cytotoxicity [6] | toxicity toward nonmalignant cells (nonmalignant cells) | hemolysis (rabbit erythrocytes) | sensitivity of PBMCs (Annexin V/PI staining) (PBMCs)
5 | 31 | 26.5 | 38.1 | 35.2 | 28.2 | 101 | CC[C@H](C)[C@H](NC(=O)CNC(=O)[C@H](CC(N)=O)NC(=O)[C@H](CC(C)C)NC(=O)[C@@H](NC(=O)[C@H](CCCNC(=N)N)NC(=O)CNC(=O)[C@@H](NC(=O)[C@@H](NC(=O)[C@@H]1CCCN1C(=O)[C@H](Cc1ccccc1)NC(=O)[C@@H](N)Cc1ccccc1)C(C)C)[C@@H](C)CC)[C@@H](C)CC)C(=O)N[C@@H](CC(C)C)C(N)=O [Temporin G] (H-FFPVIGRILNGIL-NH2; N-terminus assumed) | – | – | – | – | – | – | – | – | – | – | –
6 | 7.5 | 7.4 | 9.6 | 8.9 | 6.4 | 10.1 | CC[C@H](C)[C@H](NC(=O)[C@H](CCCNC(=N)N)NC(=O)CNC(=O)[C@H](CC(C)C)NC(=O)[C@H](Cc1ccccc1)NC(=O)[C@H](CCCCN)NC(=O)[C@H](CO)NC(=O)[C@H](Cc1ccccc1)NC(=O)[C@H](Cc1c[nH]c2ccccc12)NC(=O)[C@H](CCC(N)=O)NC(=O)[C@@H](NC(=O)[C@@H](N)Cc1ccccc1)C(C)C)C(=O)N[C@@H](CC(C)C)C(N)=O [Temporin L] (H-FVQWFSKFLGRIL-NH2) | – | – | maintaining full activity in all resistant models | markedly less sensitive | active in lymphoma cells | potent anti‐lymphoma activity | – | – | – | – | –
7 | 5 | 7.1 | 6.5 | 5.5 | 7.6 | 6.5 | CC[C@H](C)[C@H](NC(=O)CNC(=O)[C@H](CCCNC(=N)N)NC(=O)[C@H](CC(C)C)NC(=O)[C@H](CC(C)C)NC(=O)[C@H](Cc1c[nH]cn1)NC(=O)CNC(=O)[C@H](Cc1ccccc1)NC(=O)[C@@H](N)Cc1c[nH]c2ccccc12)C(=O)N[C@H](C(=O)N[C@@H](CO)C(=O)N[C@H](C(=O)NCC(=O)N[C@@H](CCCCN)C(=O)N[C@@H](Cc1c[nH]cn1)C(=O)N[C@H](C(=O)N[C@@H](Cc1c[nH]cn1)C(=O)NCC(=O)N[C@@H](CC(C)C)C(=O)N[C@H](C(=O)N[C@H](C(=O)NCC(=O)O)[C@@H](C)O)[C@@H](C)CC)[C@@H](C)CC)C(C)C)C(C)C [W-Trematocine] (H-WFGHLLRGIVSVGKHIHGLITG-OH; N-terminus and C-terminus assumed) | – | – | maintaining full activity in all resistant models | – | active in lymphoma cells; also recorded: potent anti‐lymphoma activity | – | – | negligible cytotoxicity | minimal toxicity | minimal hemolysis | markedly less sensitive
